# US20150141336A1, “Pancreatic Peptide Compounds and Use” (Novo Nordisk A/S, priority 2012, published 2015)
# Numbered stars: 1 amine (or outer) side, 2 acyl side, 3 side chain; on linkers, the order of the positions; unused ones are H or OH. Side chains are listed from the residue outwards. Peptide text beside a SMILES is read from it. * marks the point of attachment. C18 diacid = O=C(O)CCCCCCCCCCCCCCCCC(=O)*; γGlu = O=C(O)[C@H](CCC(=O)[*:2])N[*:1]; AEEA = NCCOCCOCC(=O)O
# Assay: Assay (II) PK i.v. minipig, in vivo half-life
# Parameters: species or system Göttingen mini-pigs
# Conditions: male, Göttingen, minipig, iv, Half-life minipig, Assay (II)
# Procedure, shortened: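 Male Göttingen mini-pigs (18–22 kg, n=5) received 6 nmol/kg i.v. via central catheter, formulated in 50 mM K2HPO4, 0.05% tween 80, pH 8.0. EDTA plasma sampled pre-dose to 240 h, quantified by TFC/LC/MS/MS (MRM, range 1-2000 nmol/l); half-life from non-compartmental analysis per animal.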
row,Compound,half-life [h]
1,CC[C@H](C)[C@H](NC(=O)[C@H](Cc1ccc(O)cc1)NC(=O)[C@H](CCCNC(=N)N)NC(=O)[C@H](CCCNC(=N)N)NC(=O)[C@H](CC(C)C)NC(=O)[C@H](CCCCNC(=O)COCCOCCNC(=O)COCCOCCNC(=O)CC[C@H](NC(=O)CCCCCCCCCCCCCCCCC(=O)O)C(=O)O)NC(=O)[C@H](C)NC(=O)[C@H](C)NC(=O)[C@H](Cc1ccc(O)cc1)NC(=O)[C@H](CCC(N)=O)NC(=O)[C@H](C)NC(=O)[C@H](CCSC)NC(=O)[C@H](CCC(N)=O)NC(=O)[C@H](CCC(=O)O)NC(=O)[C@@H]1CCCN1C(=O)[C@@H](NC(=O)[C@H](C)NC(=O)[C@H](CC(N)=O)NC(=O)[C@H](CC(=O)O)NC(=O)CNC(=O)[C@@H]1CCCN1C(=O)[C@H](Cc1ccc(O)cc1)NC(=O)[C@@H](NC(=O)[C@@H]1CCCN1C(=O)[C@H](CCC(=O)O)NC(=O)[C@@H](N)CC(C)C)C(C)C)[C@@H](C)O)C(=O)N[C@@H](CC(N)=O)C(=O)N[C@@H](CCSC)C(=O)N[C@@H](CC(C)C)C(=O)N[C@H](C(=O)N[C@@H](CCCNC(=N)N)C(=O)N1CCC[C@H]1C(=O)N[C@@H](CCCNC(=N)N)C(=O)N[C@@H](Cc1ccc(O)cc1)C(N)=O)[C@@H](C)O [Compound AS] (H-LEPVYPGDNATPEQMAQYAAK([AEEA-AEEA-γGlu-C18 diacid])LRRYINMLTRPRY-NH2; N-terminus and C-terminus assumed),10
2,CC[C@H](C)[C@H](NC(=O)[C@H](Cc1ccc(O)cc1)NC(=O)[C@H](CCCNC(=N)N)NC(=O)[C@H](CCCNC(=N)N)NC(=O)[C@H](CC(C)C)NC(=O)[C@H](CC(=O)O)NC(=O)[C@H](C)NC(=O)[C@H](C)NC(=O)[C@H](Cc1ccc(O)cc1)NC(=O)[C@H](CCC(N)=O)NC(=O)[C@H](C)NC(=O)[C@H](CCSC)NC(=O)[C@H](CCC(N)=O)NC(=O)[C@H](CCC(=O)O)NC(=O)[C@@H]1CCCN1C(=O)[C@@H](NC(=O)[C@H](C)NC(=O)[C@H](CC(N)=O)NC(=O)[C@H](CC(=O)O)NC(=O)CNC(=O)[C@@H]1CCCN1C(=O)[C@H](Cc1ccc(O)cc1)NC(=O)[C@@H](NC(=O)[C@@H]1CCCN1C(=O)[C@H](CCC(=O)O)NC(=O)[C@H](CC(C)C)NC(=O)[C@@H]1CCCN1)C(C)C)[C@@H](C)O)C(=O)N[C@@H](CC(N)=O)C(=O)N[C@@H](CCSC)C(=O)N[C@@H](CCCCNC(=O)COCCOCCNC(=O)COCCOCCNC(=O)CC[C@H](NC(=O)CCCCCCCCCCCCCCCCC(=O)O)C(=O)O)C(=O)N[C@H](C(=O)N[C@@H](CCCNC(=N)N)C(=O)N1CCC[C@H]1C(=O)N[C@@H](CCCNC(=N)N)C(=O)N[C@@H](Cc1ccc(O)cc1)C(N)=O)[C@@H](C)O [Compound C] (H-PLEPVYPGDNATPEQMAQYAADLRRYINMK([AEEA-AEEA-γGlu-C18 diacid])TRPRY-NH2; N-terminus and C-terminus assumed),94
3,CC[C@H](C)[C@H](NC(=O)[C@H](Cc1ccc(O)cc1)NC(=O)[C@H](CCCNC(=N)N)NC(=O)[C@H](CCCNC(=N)N)NC(=O)[C@H](CC(C)C)NC(=O)[C@H](CC(=O)O)NC(=O)[C@H](C)NC(=O)[C@H](C)NC(=O)[C@H](Cc1ccc(O)cc1)NC(=O)[C@H](CCC(N)=O)NC(=O)[C@H](C)NC(=O)[C@H](CCCCNC(=O)COCCOCCNC(=O)COCCOCCNC(=O)CC[C@H](NC(=O)CCCCCCCCCCCCCCCCC(=O)O)C(=O)O)NC(=O)[C@H](CCC(N)=O)NC(=O)[C@H](CCC(=O)O)NC(=O)[C@@H]1CCCN1C(=O)[C@@H](NC(=O)[C@H](C)NC(=O)[C@H](CC(N)=O)NC(=O)[C@H](CC(=O)O)NC(=O)CNC(=O)[C@@H]1CCCN1C(=O)[C@H](Cc1ccc(O)cc1)NC(=O)[C@@H](NC(=O)[C@@H]1CCCN1C(=O)[C@H](CCC(=O)O)NC(=O)[C@H](CC(C)C)NC(=O)[C@@H]1CCCN1)C(C)C)[C@@H](C)O)C(=O)N[C@@H](CC(N)=O)C(=O)N[C@@H](CCSC)C(=O)N[C@@H](CC(C)C)C(=O)N[C@H](C(=O)N[C@@H](CCCNC(=N)N)C(=O)N1CCC[C@H]1C(=O)N[C@@H](CCCNC(=N)N)C(=O)N[C@@H](Cc1ccc(O)cc1)C(N)=O)[C@@H](C)O [Compound Q] (H-PLEPVYPGDNATPEQK([AEEA-AEEA-γGlu-C18 diacid])AQYAADLRRYINMLTRPRY-NH2; N-terminus and C-terminus assumed),56

# Second part, the compound after the results:
row,half-life [h],Compound
1,77,CC[C@H](C)[C@H](NC(=O)[C@H](Cc1ccc(O)cc1)NC(=O)[C@H](CCCNC(=N)N)NC(=O)[C@H](CCCNC(=N)N)NC(=O)[C@H](CC(C)C)NC(=O)[C@H](CC(=O)O)NC(=O)[C@H](C)NC(=O)[C@H](C)NC(=O)[C@H](Cc1ccc(O)cc1)NC(=O)[C@H](CCC(N)=O)NC(=O)[C@H](C)NC(=O)[C@H](CCSC)NC(=O)[C@H](CCC(N)=O)NC(=O)[C@H](CCC(=O)O)NC(=O)[C@@H]1CCCN1C(=O)[C@@H](NC(=O)[C@H](C)NC(=O)[C@H](CC(N)=O)NC(=O)[C@H](CC(=O)O)NC(=O)CNC(=O)[C@@H]1CCCN1C(=O)[C@H](Cc1ccc(O)cc1)NC(=O)[C@@H](NC(=O)[C@@H]1CCCN1C(=O)[C@H](CCC(=O)O)NC(=O)[C@H](CC(C)C)NC(=O)[C@@H]1CCCN1)C(C)C)[C@@H](C)O)C(=O)N[C@@H](CC(N)=O)C(=O)N[C@@H](CCCCNC(=O)COCCOCCNC(=O)COCCOCCNC(=O)CC[C@H](NC(=O)CCCCCCCCCCCCCCCCC(=O)O)C(=O)O)C(=O)N[C@@H](CC(C)C)C(=O)N[C@H](C(=O)N[C@@H](CCCNC(=N)N)C(=O)N1CCC[C@H]1C(=O)N[C@@H](CCCNC(=N)N)C(=O)N[C@@H](Cc1ccc(O)cc1)C(N)=O)[C@@H](C)O [Compound D] (H-PLEPVYPGDNATPEQMAQYAADLRRYINK([AEEA-AEEA-γGlu-C18 diacid])LTRPRY-NH2; N-terminus and C-terminus assumed)
2,29,CC[C@H](C)[C@H](NC(=O)[C@H](Cc1ccc(O)cc1)NC(=O)[C@H](CCCNC(=N)N)NC(=O)[C@H](CCCNC(=N)N)NC(=O)[C@H](CC(C)C)NC(=O)[C@H](CC(=O)O)NC(=O)[C@H](C)NC(=O)[C@H](C)NC(=O)[C@H](Cc1ccc(O)cc1)NC(=O)[C@H](CCC(N)=O)NC(=O)[C@H](C)NC(=O)[C@H](CCSC)NC(=O)[C@H](CCC(N)=O)NC(=O)[C@H](CCC(=O)O)NC(=O)[C@@H]1CCCN1C(=O)[C@@H](NC(=O)[C@H](C)NC(=O)[C@H](CC(N)=O)NC(=O)[C@H](CC(=O)O)NC(=O)CNC(=O)[C@@H]1CCCN1C(=O)[C@H](Cc1ccc(O)cc1)NC(=O)[C@H](CCCCNC(=O)COCCOCCNC(=O)COCCOCCNC(=O)CC[C@H](NC(=O)CCCCCCCCCCCCCCCCC(=O)O)C(=O)O)NC(=O)[C@@H]1CCCN1C(=O)[C@H](CCC(=O)O)NC(=O)[C@@H](N)CC(C)C)[C@@H](C)O)C(=O)N[C@@H](CC(N)=O)C(=O)N[C@@H](CCSC)C(=O)N[C@@H](CC(C)C)C(=O)N[C@H](C(=O)N[C@@H](CCCNC(=N)N)C(=O)N1CCC[C@H]1C(=O)N[C@@H](CCCNC(=N)N)C(=O)N[C@@H](Cc1ccc(O)cc1)C(N)=O)[C@@H](C)O [Compound BJ]
